The results in this text go back to publication PMC5216056 (Nature Communications, 2017).

Assay [1] addresses T1, hCB1R (Homo sapiens, UniProt P21554).
T1 construct: host or cells: CHO
In words: biochemical. Type of assay: biochemical.

For a further assay, the system named is BZD (central). Type of assay: binding. The settings on record: 10 µM.
In another assay the target is T2, A1 (h) (Homo sapiens, UniProt P30542).
T2 construct: CEREP
T2 sequence (P30542 1-326): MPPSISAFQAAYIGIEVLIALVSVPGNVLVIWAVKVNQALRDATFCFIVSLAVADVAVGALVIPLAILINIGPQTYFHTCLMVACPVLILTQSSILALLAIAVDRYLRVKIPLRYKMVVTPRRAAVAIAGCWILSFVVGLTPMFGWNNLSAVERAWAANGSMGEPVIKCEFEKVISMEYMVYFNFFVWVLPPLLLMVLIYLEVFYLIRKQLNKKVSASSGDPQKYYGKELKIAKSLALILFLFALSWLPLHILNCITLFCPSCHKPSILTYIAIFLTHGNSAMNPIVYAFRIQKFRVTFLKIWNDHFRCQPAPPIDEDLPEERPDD
In words: CEREP panel. It is filed as binding. The following applies: 10 µM.

For assay [2], the system named is AEA cellular uptake in HMC-1 cells. Nature of the assay: cells. The following applies: read-out: AEA reuptake IC50 (95% CI) HMC-1 cells; FAAH-deficient cells. It is filed as cell-based, human.
A further assay has as its target T3, MT1 (ML1A) (h) (Homo sapiens, UniProt P48039).
T3 construct: CEREP (contract assay)
Nature of the assay: CEREP panel. Type of assay: binding. The following applies: 10 µM.

The subject of assay [3] is AEA cellular uptake in U937 cells. Nature of the assay: cells. It is filed as cell-based, human.
Another assay concerns Na+ channel (site 2). Type of assay: binding. The following applies: 10 µM.
The target of assay [4] is T4, hCB2R (Homo sapiens, UniProt P34972). In words: biochemical. The settings on record: CHO membranes; Leiden, HU210 and SR144528 from Roche. It is filed as binding.
T4 sequence (P34972 whole entry): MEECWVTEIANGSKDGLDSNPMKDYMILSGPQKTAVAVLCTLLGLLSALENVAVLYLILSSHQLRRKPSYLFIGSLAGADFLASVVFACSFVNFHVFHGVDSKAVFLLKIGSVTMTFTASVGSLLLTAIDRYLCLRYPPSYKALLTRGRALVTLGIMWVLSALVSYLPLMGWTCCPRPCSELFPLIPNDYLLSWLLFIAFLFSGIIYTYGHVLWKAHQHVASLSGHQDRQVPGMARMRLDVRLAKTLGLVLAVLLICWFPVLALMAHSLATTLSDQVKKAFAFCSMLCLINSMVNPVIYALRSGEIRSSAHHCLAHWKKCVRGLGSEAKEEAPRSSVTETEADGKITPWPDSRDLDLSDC
Assay [5] addresses T1, hCB1R. Nature of the assay: cell-based. Type of assay: cell-based.
The target in a further assay is T5, alpha 2A (h) (Homo sapiens, UniProt P08913).
T5 construct: CEREP
T5 sequence (P08913 1-465): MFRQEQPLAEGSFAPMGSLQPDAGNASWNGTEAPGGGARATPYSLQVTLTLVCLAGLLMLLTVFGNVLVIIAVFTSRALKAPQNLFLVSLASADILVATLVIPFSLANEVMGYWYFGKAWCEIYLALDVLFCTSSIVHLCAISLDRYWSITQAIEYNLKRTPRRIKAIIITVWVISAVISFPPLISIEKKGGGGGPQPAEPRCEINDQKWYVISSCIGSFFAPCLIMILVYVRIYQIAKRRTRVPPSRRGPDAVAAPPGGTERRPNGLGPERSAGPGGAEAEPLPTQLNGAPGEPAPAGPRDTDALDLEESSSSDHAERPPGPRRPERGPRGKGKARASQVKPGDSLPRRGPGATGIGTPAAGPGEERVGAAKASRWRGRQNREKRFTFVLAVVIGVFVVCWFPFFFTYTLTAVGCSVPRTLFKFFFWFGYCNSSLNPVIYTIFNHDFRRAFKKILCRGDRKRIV
Nature of the assay: CEREP panel. It is filed as binding. The following applies: 10 µM.

Assay [6] deals with T4, hCB2R. Nature of the assay: cell-based. Type of assay: cell-based. Set-up: expressed in transfected cells; host or cells: Flp-In-293 (Invitrogen #R750-07), pcDNA5/FRT. The following applies: normalized to CP55940.
For another assay, the target named is T6, Rat recombinant TRPV3 (Rattus norvegicus, UniProt Q4QYD9).
T6 construct: expressed in transfected cells; host or cells: HEK293 (TRPV3-HEK-293, gift from HB Bradshaw, Indiana University)
T6 sequence (Q4QYD9 1-791): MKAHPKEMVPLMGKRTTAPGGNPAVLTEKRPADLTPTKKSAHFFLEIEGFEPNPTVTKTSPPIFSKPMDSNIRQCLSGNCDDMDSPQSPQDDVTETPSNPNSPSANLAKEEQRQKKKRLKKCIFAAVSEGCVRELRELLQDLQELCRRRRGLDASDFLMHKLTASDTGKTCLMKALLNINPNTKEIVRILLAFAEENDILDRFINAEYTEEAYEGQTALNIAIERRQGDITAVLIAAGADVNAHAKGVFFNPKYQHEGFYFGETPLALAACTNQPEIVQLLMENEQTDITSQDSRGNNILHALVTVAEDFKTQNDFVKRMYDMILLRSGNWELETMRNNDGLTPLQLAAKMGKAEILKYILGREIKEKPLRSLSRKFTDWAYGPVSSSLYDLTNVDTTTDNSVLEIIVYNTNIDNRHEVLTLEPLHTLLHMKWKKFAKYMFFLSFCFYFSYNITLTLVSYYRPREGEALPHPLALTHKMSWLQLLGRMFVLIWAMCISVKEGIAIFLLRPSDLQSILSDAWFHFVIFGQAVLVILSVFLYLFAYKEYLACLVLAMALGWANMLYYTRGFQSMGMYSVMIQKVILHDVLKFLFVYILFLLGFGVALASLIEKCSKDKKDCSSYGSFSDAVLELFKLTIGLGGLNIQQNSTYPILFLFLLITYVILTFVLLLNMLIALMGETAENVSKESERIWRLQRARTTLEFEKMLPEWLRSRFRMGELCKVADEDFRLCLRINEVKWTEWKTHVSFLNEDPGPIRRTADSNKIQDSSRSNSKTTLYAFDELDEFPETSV
Nature of the assay: cell-based. Type of assay: cell-based.

A further assay addresses T7, beta 1 (h) (Homo sapiens, UniProt P08588).
T7 construct: CEREP
Nature of the assay: biochemical. Type of assay: binding. The following applies: 10 µM.

For another assay, the target named is T8, CB1 (h) (Homo sapiens, UniProt P21554).
T8 construct: CEREP (contract assay)
T8 sequence (P21554 whole entry): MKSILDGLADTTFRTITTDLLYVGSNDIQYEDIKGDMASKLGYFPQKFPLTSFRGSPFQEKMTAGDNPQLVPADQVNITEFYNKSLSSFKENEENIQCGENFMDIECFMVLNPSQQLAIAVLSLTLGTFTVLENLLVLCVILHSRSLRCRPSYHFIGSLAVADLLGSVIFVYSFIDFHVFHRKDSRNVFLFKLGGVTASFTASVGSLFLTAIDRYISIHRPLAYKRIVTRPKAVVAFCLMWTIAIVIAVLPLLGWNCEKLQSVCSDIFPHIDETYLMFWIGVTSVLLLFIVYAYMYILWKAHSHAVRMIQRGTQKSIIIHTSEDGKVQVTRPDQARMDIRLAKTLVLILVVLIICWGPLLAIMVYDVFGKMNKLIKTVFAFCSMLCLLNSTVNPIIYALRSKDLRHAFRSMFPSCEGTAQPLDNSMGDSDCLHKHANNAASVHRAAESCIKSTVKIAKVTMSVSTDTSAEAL
Nature of the assay: biochemical. Type of assay: binding. The following applies: 10 µM.

T1 sequence (P21554 whole entry): as above
T3 sequence (P48039 whole entry): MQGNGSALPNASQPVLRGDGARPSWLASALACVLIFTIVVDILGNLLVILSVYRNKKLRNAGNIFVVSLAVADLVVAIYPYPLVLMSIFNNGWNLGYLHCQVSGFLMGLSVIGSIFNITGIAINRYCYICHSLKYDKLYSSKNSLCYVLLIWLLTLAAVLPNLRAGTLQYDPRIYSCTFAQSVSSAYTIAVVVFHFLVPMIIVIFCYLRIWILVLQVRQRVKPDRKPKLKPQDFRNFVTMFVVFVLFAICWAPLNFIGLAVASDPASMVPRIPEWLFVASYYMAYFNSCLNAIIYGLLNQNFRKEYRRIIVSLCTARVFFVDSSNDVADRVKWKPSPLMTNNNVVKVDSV
T7 sequence (P08588 whole entry): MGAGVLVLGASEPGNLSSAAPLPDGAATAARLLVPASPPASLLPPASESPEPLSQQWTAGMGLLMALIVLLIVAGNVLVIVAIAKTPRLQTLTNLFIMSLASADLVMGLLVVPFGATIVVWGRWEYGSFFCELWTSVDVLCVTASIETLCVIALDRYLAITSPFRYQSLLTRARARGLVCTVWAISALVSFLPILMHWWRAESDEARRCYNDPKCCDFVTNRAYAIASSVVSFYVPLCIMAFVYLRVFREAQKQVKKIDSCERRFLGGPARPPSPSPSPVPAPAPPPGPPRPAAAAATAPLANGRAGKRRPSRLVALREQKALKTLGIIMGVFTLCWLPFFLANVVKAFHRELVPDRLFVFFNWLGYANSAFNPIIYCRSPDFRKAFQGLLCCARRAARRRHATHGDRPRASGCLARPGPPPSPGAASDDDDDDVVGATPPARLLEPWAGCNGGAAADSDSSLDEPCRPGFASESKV

On to `CCCCCCC(C)(C)c1cc(OC)c(C2=C[C@H]3CC[C@]2(CO)C3(C)C)c(OC)c1` [HU910], for which, on hCB1R [1], the “pEC50 ± SEM GTPγS hCB1R” value is on record as less than 5. The “% inhibition BZD (central)” value in the assay with BZD (central) turned out to be 0%. Moreover, the “% inhibition A1 (h)” value at A1 (h) was 23%. Moreover, the IC50 in assay [2] was greater than 5000 nM; in assay [3] (read-out: AEA reuptake IC50 (95% CI) U937 cells), 1560 nM; at Rat recombinant TRPV3 (vs thymol 100μM, read-out: TRPV3 IC50 for antagonism or desensitization), 12900 nM. At MT1 (ML1A) (h), the “% inhibition MT1 (ML1A) (h)” value stood at 52%. The “AEA reuptake Efficacy (% inhibition) U937 cells” value in assay [3] (from dose-response) worked out at 70%. Besides, in the assay with Na+ channel (site 2), the “% inhibition Na+ channel (site 2)” value turned out to be 5%. Besides, at hCB2R [4], the “pKi ± SEM hCB2R” value is on record as 7.22 ± 0.31. At hCB1R [5], the “pEC50 ± SEM GIRK hCB1R” value was less than 5. The “Emax ± SEM GIRK hCB1R” value on hCB1R [5] (normalized to CP55940) is reported as 7 ± 5%. Besides, at alpha 2A (h), the “% inhibition alpha 2A (h)” value amounted to 7%. Moreover, the “Emax ± SEM GIRK hCB2R” value on hCB2R [6] was determined as 74 ± 2%. Moreover, the “TRPV3 Efficacy (% ionomycin 4μM)” value at Rat recombinant TRPV3 turned out to be 31.3%. On Rat recombinant TRPV3 (read-out: TRPV3 Potency EC50), the EC50 came out at 120 ± 50 nM. Also, on beta 1 (h), the “% inhibition beta 1 (h)” value is recorded as -4%. Moreover, the “% inhibition CB1 (h)” value on CB1 (h) turned out to be 71%.
